Source: PubChem BioAssay AID248 (DTP/NCI, 2004)
“And” between values parts separate entries of the source, which are not always exact repeats. Equal values may be shown once. Inconclusive results and toxic doses are left out. No stated cut-off is given here; in the data, active means T/C of 150% or more; inactive means T/C below 125%.

Tested on: L1210 leukemia ip in BDF1 mice, survival T/C
Assay: NCI In Vivo Anticancer Drug Screen. Data for tumor model L1210 Leukemia (intraperitoneal) in B6D2F1 (BDF1) mice
Settings: endpoint: mean survival time, higher = longer survival
How it was run: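 Antitumor effect is assessed in tumor-bearing animals. Survival in the compound arm is compared with a vehicle-dosed control arm and expressed as their quotient.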

[1] = dose: 100.0 mg/kg/injection, schedule: Q01DX009 (ip), vehicle: Klucel (hydroxypropylcellulose) (HPC)
[2] = dose: 100.0 mg/kg/injection, schedule: Q04DX003 (ip), vehicle: Klucel (hydroxypropylcellulose) (HPC)
[3] = dose: 200.0 mg/kg/injection, schedule: Q01DX009 (ip), vehicle: Klucel (hydroxypropylcellulose) (HPC)
[4] = dose: 200.0 mg/kg/injection, schedule: Q04DX003 (ip), vehicle: Klucel (hydroxypropylcellulose) (HPC)
[5] = dose: 400.0 mg/kg/injection, schedule: Q04DX003 (ip), vehicle: Klucel (hydroxypropylcellulose) (HPC)
[6] = dose: 100.0 mg/kg/injection, schedule: Q04DX003 (ip), vehicle: saline with Tween-80
[7] = dose: 100.0 mg/kg/injection, schedule: Q01DX009 (ip), vehicle: saline with Tween-80
[8] = dose: 200.0 mg/kg/injection, schedule: Q04DX003 (ip), vehicle: saline with Tween-80
[9] = dose: 400.0 mg/kg/injection, schedule: Q04DX003 (ip), vehicle: saline with Tween-80
[10] = dose: 100.0 mg/kg/injection, schedule: Q01DX001 (ip), vehicle: carboxymethylcellulose (CMC)
[11] = dose: 200.0 mg/kg/injection, schedule: Q01DX001 (ip), vehicle: carboxymethylcellulose (CMC)
[12] = dose: 400.0 mg/kg/injection, schedule: Q01DX001 (ip), vehicle: carboxymethylcellulose (CMC)

Measured: T/C

COc1cccc2c1C(=O)c1c(O)c3c(c(O)c1C2=O)C[C@@](O)(/C(C)=N/NC(N)=S)C[C@@H]3OC1CC(N)C(O)C(C)O1 (some centres not stated)
inactive: dose: 0.25 mg/kg/injection, schedule: Q04DX003 (ip), vehicle: water 102 % of control | dose: 0.5 mg/kg/injection, schedule: Q04DX003 (ip), vehicle: water 110 % of control | dose: 1.0 mg/kg/injection, schedule: Q01DX009 (ip), vehicle: water 121 % of control | dose: 1.0 mg/kg/injection, schedule: Q04DX003 (ip), vehicle: water 107 % of control | dose: 2.0 mg/kg/injection, schedule: Q01DX009 (ip), vehicle: water 119 % of control | dose: 2.0 mg/kg/injection, schedule: Q04DX003 (ip), vehicle: water 104 % of control | dose: 4.0 mg/kg/injection, schedule: Q04DX003 (ip), vehicle: water 114 % of control | dose: 7.0 mg/kg/injection, schedule: Q04DX003 (ip), vehicle: water 122 % of control | dose: 8.0 mg/kg/injection, schedule: Q04DX003 (ip), vehicle: water 107 % of control | dose: 10.6 mg/kg/injection, schedule: Q04DX003 (ip), vehicle: water 120 % of control | dose: 24.0 mg/kg/injection, schedule: Q04DX003 (ip), vehicle: water 122 % of control | dose: 32.0 mg/kg/injection, schedule: Q01DX009 (ip), vehicle: water 124 % of control

CCCCCCCCCCCCNC(=O)c1ccc[n+](C)c1
inactive: dose: 6.25 mg/kg/injection, schedule: Q01DX009 (ip), vehicle: acetone 95 % of control | dose: 6.25 mg/kg/injection, schedule: Q04DX003 (ip), vehicle: saline 91 % of control | dose: 12.5 mg/kg/injection, schedule: Q01DX001 (ip), vehicle: saline 105 % of control | dose: 12.5 mg/kg/injection, schedule: Q01DX009 (ip), vehicle: acetone 98 % of control | dose: 12.5 mg/kg/injection, schedule: Q04DX003 (ip), vehicle: saline 92 % of control and 103 % of control | dose: 25.0 mg/kg/injection, schedule: Q01DX001 (ip), vehicle: saline 104 % of control | dose: 25.0 mg/kg/injection, schedule: Q01DX009 (ip), vehicle: acetone 95 % of control | dose: 25.0 mg/kg/injection, schedule: Q04DX003 (ip), vehicle: saline 94 % of control and 91 % of control | dose: 50.0 mg/kg/injection, schedule: Q04DX003 (ip), vehicle: saline 96 % of control

Cc1ccc(/C(=C\c2ccccc2)C(=O)c2ccccc2)cc1
inactive: [1] 95 % of control | [2] 93 % of control | [3] 92 % of control | [4] 93 % of control | dose: 400.0 mg/kg/injection, schedule: Q01DX009 (ip), vehicle: Klucel (hydroxypropylcellulose) (HPC) 95 % of control | [5] 101 % of control

CC(C)(C)C(O)C1CCC(C(O)C(C)(C)C)S1(=O)=O (configuration not stated)
inactive: dose: 50.0 mg/kg/injection, schedule: Q04DX003 (ip), vehicle: Klucel (hydroxypropylcellulose) (HPC) 100 % of control | [2] 104 % of control | [4] 98 % of control | [5] 100 % of control

CN(C)CCCN=Cc1cc([N+](=O)[O-])ccc1O.CN(C)CCCN=Cc1cc([N+](=O)[O-])ccc1O.[Ni+2]
inactive: [6] 91 % of control

O=C(C=C(C(F)(F)F)C(F)(F)F)c1cccc(S(=O)(=O)F)c1
inactive: dose: 3.13 mg/kg/injection, schedule: Q01DX009 (ip), vehicle: saline with Tween-80 96 % of control | dose: 6.25 mg/kg/injection, schedule: Q01DX009 (ip), vehicle: saline with Tween-80 100 % of control | dose: 12.5 mg/kg/injection, schedule: Q01DX009 (ip), vehicle: saline with Tween-80 95 % of control

CC(=O)Oc1ccc(Cl)cc1
inactive: [7] 97 % of control | [6] 108 % of control | dose: 200.0 mg/kg/injection, schedule: Q01DX009 (ip), vehicle: saline with Tween-80 103 % of control | [8] 97 % of control | [9] 105 % of control

COc1ccc(CC2=[N+](C)CCc3cc(OC)c(OC)cc32)cc1OC
inactive: dose: 25.0 mg/kg/injection, schedule: Q01DX009 (ip), vehicle: other 101 % of control | dose: 50.0 mg/kg/injection, schedule: Q01DX009 (ip), vehicle: other 104 % of control | dose: 100.0 mg/kg/injection, schedule: Q01DX001 (ip), vehicle: other 106 % of control | dose: 100.0 mg/kg/injection, schedule: Q01DX009 (ip), vehicle: other 106 % of control | dose: 400.0 mg/kg/injection, schedule: Q01DX001 (ip), vehicle: other 106 % of control

CC(CC(=O)O)Nc1ccc(Cl)c(Cl)c1 (configuration not stated)
inactive: dose: 25.0 mg/kg/injection, schedule: Q01DX009 (ip), vehicle: saline with Tween-80 100 % of control | dose: 50.0 mg/kg/injection, schedule: Q01DX009 (ip), vehicle: saline with Tween-80 102 % of control | [7] 94 % of control | [6] 107 % of control | [8] 96 % of control

O=C1OC(=O)C2C1C1C=CC2C1(c1ccccc1)c1ccccc1 (configuration not stated)
inactive: [10] 96 % of control | [11] 96 % of control | [12] 96 % of control

CN(N=O)c1ccc(C=C2c3ccccc3-c3ccccc32)cc1
inactive: dose: 50.0 mg/kg/injection, schedule: Q01DX001 (ip), vehicle: carboxymethylcellulose (CMC) 102 % of control | [10] 106 % of control | [11] 96 % of control | [12] 102 % of control

COc1cccc(OC)c1C#N
inactive: dose: 50.0 mg/kg/injection, schedule: Q01DX009 (ip), vehicle: Klucel (hydroxypropylcellulose) (HPC) 95 % of control | [1] 96 % of control | [2] 98 % of control | [3] 95 % of control | [4] 98 % of control

N#C/C(=C/c1cccc2ccccc12)C(N)=O
inactive: dose: 100.0 mg/kg/injection, schedule: Q04DX002 (ip), vehicle: saline with Tween-80 98 % of control | dose: 200.0 mg/kg/injection, schedule: Q04DX002 (ip), vehicle: saline with Tween-80 91 % of control | dose: 400.0 mg/kg/injection, schedule: Q04DX002 (ip), vehicle: saline with Tween-80 98 % of control

CSc1ccccc1N=Cc1c(N)ccc(C)c1C
inactive: dose: 100.0 mg/kg/injection, schedule: Q01DX001 (ip), vehicle: saline with Tween-80 98 % of control | dose: 200.0 mg/kg/injection, schedule: Q01DX001 (ip), vehicle: saline with Tween-80 95 % of control | dose: 400.0 mg/kg/injection, schedule: Q01DX001 (ip), vehicle: saline with Tween-80 98 % of control

COc1cccc(C(c2ccccc2)C(CC(=O)O)CC(=O)O)c1 (configuration not stated)
inactive: dose: 75.0 mg/kg/injection, schedule: Q04DX002 (ip), vehicle: Klucel (hydroxypropylcellulose) (HPC) 101 % of control | dose: 150.0 mg/kg/injection, schedule: Q04DX002 (ip), vehicle: Klucel (hydroxypropylcellulose) (HPC) 108 % of control | dose: 300.0 mg/kg/injection, schedule: Q04DX002 (ip), vehicle: Klucel (hydroxypropylcellulose) (HPC) 97 % of control

CC(C)CC(CC(C)C)NCC(C)OC(=O)C(c1ccccc1)c1ccccc1 (configuration not stated)
inactive: dose: 75.0 mg/kg/injection, schedule: Q01DX001 (ip), vehicle: saline 102 % of control | dose: 150.0 mg/kg/injection, schedule: Q01DX001 (ip), vehicle: saline 98 % of control | dose: 300.0 mg/kg/injection, schedule: Q01DX001 (ip), vehicle: saline 102 % of control

Cc1ccc(S(=O)(=O)OCC(OS(=O)(=O)c2ccc(C)cc2)C2OCOC(COS(=O)(=O)c3ccc(C)cc3)C2OS(=O)(=O)c2ccc(C)cc2)cc1 (configuration not stated)
inactive: [6] 94 % of control | [8] 87 % of control | [9] 100 % of control
